# Data published in patent US9085608B2, “Treatment of biofilms” (LYTIX BIOPHARMA AS, priority 2008, dated 2015).
# Entries after “also recorded” stand apart in the source; their conditions may differ.
# Assays:
# [1] = system: Staphylococcus aureus PIA 9; assay: microbe, parasite or virus in culture; settings: planktonic, SA PIA 9
# Method: (§1) Bacteria were grown overnight at 37° C. in cation adjusted Mueller-Hinton II Broth (MHIIB).
# (§2) We determined the MICs of oxacillin, gentamicin, tetracycline, vancomycin and linezolid using E-test (AB Biodisk, Solna, Sweden) and MICs of rifampicin using broth microdilution assay. Breakpoints were interpreted according to EUCAST criteria. […] All 3 SAMPs are tripeptides with two arginine residues providing their cationic moieties (FIG. 1). The lipophilic bulk is provided by a modified tryptophane derivate. […] The molecular weights of the SAMPs are in the range of 700-800 Dalton.
# [2] = system: Staphylococcus aureus PIA90; assay: microbe, parasite or virus in culture; settings: planktonic, SA PIA90
# Method: as §1, §2
# [3] = system: Staphylococcus epidermidis RP62A ATCC 35984; assay: microbe, parasite or virus in culture; settings: planktonic, SE RP62A ATCC 35984
# Method: as §1, §2
# [4] = system: Staphylococcus epidermidis TUH 08-16; assay: microbe, parasite or virus in culture; settings: planktonic, SE TUH 08-16
# Method: as §1, §2
# [5] = system: Staphylococcus haemolyticus TUH 51-03; assay: microbe, parasite or virus in culture; settings: planktonic, SH TUH 51-03
# Method: as §1, §2
# [6] = system: Staphylococcus haemolyticus TUH 51-07; assay: microbe, parasite or virus in culture; settings: planktonic, SH TUH 51-07
# Method: as §1, §2
# [7] = system: six staphylococcal strains (2 S. epidermidis, 2 S. haemolyticus and 2 S. aureus); assay: Susceptibility testing under planktonic growth condition, EUCAST breakpoints; type: cell-based; settings: all 6 strains; EUCAST criteria
# Method: The six staphylococcal strains (2 S. epidermidis, 2 S. haemolyticus and 2 S. aureus) used in this study were selected based on their previously known biofilm forming capacity (Table 1).
# as §1
# We determined the MICs of oxacillin, gentamicin, tetracycline, vancomycin and linezolid using E-test (AB Biodisk, Solna, Sweden) and MICs of rifampicin using broth microdilution assay. Breakpoints were interpreted according to EUCAST criteria. We selected 3 different SAMPs (Compounds A, B and C; Lytix Biopharma, Tromsø, Norway—see FIG. 1) based on previously known antimicrobial activities, and determined their exact MICs with broth microdilution assay. All 3 SAMPs are tripeptides with two arginine residues providing their cationic moieties (FIG. 1). The lipophilic bulk is provided by a modified tryptophane derivate. The difference between the compounds is the size of the C-terminal modification; Compound A has the smallest and Compound B has the largest C-terminal modification (FIG. 1). The molecular weights of the SAMPs are in the range of 700-800 Dalton.
# S. aureus PIA 90 biofilm = assay: Biofilm metabolic activity, Alamar blue reduction; type: cell-based, Staphylococcus aureus
# Method: (§3) Biofilm formation was induced in 96-well flat bottom microtitre plates (Nunclon Surface, NUNC, Roskilde, Denmark). First, overnight cultures were diluted 1:100 in MHIIB (S. epidermidis and S. haemolyticus) or tryptic soy broth (TSB) with 5% glucose and 5% NaCl (S. aureus). Two hundred of this bacterial suspension (10^7 cfu/ml) was added to each well and incubated for 24 h at 37° C. After 24 h the wells were carefully washed twice with phosphate-buffered saline (PBS) to remove planktonic bacteria. The washing procedure was evaluated by measuring metabolic activity of the PBS with the Alamar blue method, described in detail below. […]
# (§4) We quantified the metabolic activity of biofilm with a slightly modified method previously described by Pettit et al. in Antimicrob. […] After 1 h incubation at 37° C., absorbance was recorded at 570 and 600 nm using Versamax tuneable microplate reader (Molecular Devices, Sunnyvale, Calif., USA). […]
# (§5) The percent reduction of AB was calculated according to the manufacturer's formula (Invitrogen, Carlsbad, USA). We calculated mean and standard deviations (SD) of all repeated measurements. Pearson's two-tailed correlation between the AB method and the CV method (FIG. 2) was calculated on averaged data from all 6 staphylococcal strains. […]
# [8] = system: S. haemolyticus TUH 51-07 biofilm; assay: Biofilm metabolic activity, Alamar blue reduction; type: cell-based, Staphylococcus haemolyticus; settings: 500 mg/L, 24 h
# Method: as §3, §4, §5
# [9] = system: S. haemolyticus TUH 51-07 biofilm; assay: Biofilm imaging, LIVE/DEAD staining and confocal laser scanning microscopy; type: cell-based, Staphylococcus haemolyticus; settings: 500 mg/L, 24 h treatment
# Method: One ml aliquots of MHIIB-diluted overnight culture was used to grow S. haemolyticus TUH 51-07 biofilm on plastic coverslides (Thermanox, cellculture treated on one side, NUNC, Roskilde, Denmark) in 24-well dishes (Falcon 3047, Becton Dickinson, NJ, USA) for 24 h. The coverslides were then washed carefully with PBS, moved to a new plate and treated for 24 h with tetracycline 50 mg/L and 500 mg/L, vancomycin 50 mg/L and 500 mg/L, or Compound A 50 mg/L and 500 mg/L. The coverslides were washed again with […] and stained with a LIVE/DEAD kit (Invitrogen Molecular Probes, Eugene, Oreg., USA) following the manufacturer's instructions. This stain contains SYTO 9 (green fluorescent) and propidium iodide (PI; red fluorescent), both binding to DNA. When used alone, the SYTO 9 generally stains all bacteria in a population; both those with intact and those with damaged membranes. In contrast, PI penetrates only bacteria with damaged membranes, causing a reduction in the SYTO 9 stain green fluorescence when both dyes are present. We examined treated and untreated biofilms with a Leica TCS SP5 (Leica Microsystems CMS Gmbh, Mannheim, Germany) confocal laser scanning microscope (CLSM). Images were obtained using a 63×1.2 NA HCX PL APO water immersion lens. For detection of SYTO9 (green channel), we used the 488 nm line of the argon laser and a detection bandwidth of 495-515 nm. For PI detection (red channel), we used the 561 nm line and a detection bandwidth of 615-660 nm. The two fluorescent-signals were collected sequentially at 400 Hz. Image analyses and export was performed in Leica LAS AF version 1.8.2.
structure (smiles),measurement,setting,value
"CN(C)[C@@H]1C(=O)C(C(N)=O)=C(O)[C@@]2(O)C(=O)C3=C(O)c4c(O)cccc4[C@@](C)(O)[C@H]3C[C@@H]12 [TET, tetracycline]",MIC,[1],0.5 µg/mL
same,MIC,[2],0.5 µg/mL
same,MIC,[3],0.5 µg/mL
same,MIC,[4],2 µg/mL
same,MIC,[5],1 µg/mL
same,MIC,[6],0.5 µg/mL
same,susceptibility under planktonic growth,[7],susceptible; also recorded: sensitive
same,suppression of metabolic activity (AB reduction),S. aureus PIA 90 biofilm,complete suppression
same,metabolic activity in biofilm assay,[8],hardly any measurable metabolic activity
same,LIVE/DEAD staining of biofilm cells (CLSM),[9],a significant part of the cells are still green; also recorded: still contained a significant number of living cells
